From paper PMC6895203, “Conformational pathway provides unique sensitivity to a synaptic mGluR” (Nature Communications, 2019)
“And” between values parts separate entries of the source, which are not always exact repeats. Equal entries are not always repeated.

Key:
[1] = molecular target: T1, SNAP-mGluR7(N74K) homodimer (Rattus norvegicus, UniProt P35400, N74K); test: smFRET on SNAP-mGluR7(N74K) homodimers; format: biochemical; conditions: 10 mM glutamate; wild-type at >10X higher glutamate
T1 construct: HA (N); made in house; host or cells: HEK293T
Excerpt: (§1) (100 ms time resolution).

SNAP-mGluR2(F756D) = molecular target: T2, SNAP-mGluR2(F756D) (Rattus norvegicus, UniProt P31421, F756D); test: Whole-cell patch clamp of GIRK1 current, SNAP-mGluR2(F756D) expressed alone; format: cell-based; conditions: SNAP-mGluR2-F756D alone; 1 mM Glu; single cells
T2 construct: HA (N); expressed in transfected cells; host or cells: HEK293 / HEK293T
Excerpt: We explored this further by examining trans-activation, whereby binding of ligand to one subunit activates G-protein interaction in the partner subunit[46],[47]. To specifically activate only the mGluR2 subunit of the mGluR2/7 heterodimer, we selectively attached a photoswitched tethered ligand to mGluR2.
(§2) Illumination was applied to the entire field of view using either a Polychrome V monochromator (TILL Photonics) through a 20× objective, or a Lambda DG4 high-speed wavelength switcher (Sutter Instruments) with 380 nm and 500 nm filters through a 40× objective. pClamp software was used for both data acquisition and control of illumination.

mGluR7(K319C) = molecular target: T3, mGluR7(K319C) (Rattus norvegicus, UniProt P35400, K319C); format: cell-based; conditions: vs wild-type mGluR7
T3 construct: expressed in transfected cells; host or cells: HEK293 / HEK293T
Excerpt: as §2

[2] = molecular target: T4, SNAP-mGluR7/SNAP-mGluR7 homodimer (mGluR7/7) (Rattus norvegicus, UniProt P35400); test: Live-cell ensemble FRET of SNAP-mGluR7/7 homodimer in HEK293T cells; format: cell-based; parameters: HA (N); made in house; host or cells: HEK293T
Description: After labeling, cells were mounted on an upright, scanning confocal microscope (Zeiss LSM 780) and imaged with a 20X objective. […] Clusters of cells were analyzed together and FRET was calculated as FRET = (IA)/(ID + IA), in which ID is the fluorescence donor intensity and IA is the fluorescence acceptor intensity. […] Fitting of dose–response curves was performed using Prism (Graphpad). […] Drugs were delivered with a gravity-driven perfusion system.

[3] = molecular target: SNAP-mGluR2/SNAP-mGluR2 (mGluR2/2) (Rattus norvegicus, UniProt P31421); test: Whole-cell patch clamp of GIRK1 current, mGluR2/2 homodimer; conditions: mGluR2/2+GIRK; for titration values, single replicates 1-3: individual replicates; for titration values, AVG (normalized response): Supplemental Figure 1a
[4] = molecular target: T4, SNAP-mGluR7/SNAP-mGluR7 homodimer (mGluR7/7); test: smFRET on isolated immune-purified SNAP-mGluR7/7 dimers; conditions: read-out: EC50 of low FRET peak concentration-response (apparent affinity); smFRET, isolated receptor
mGluR5(YADA) homodimer = conditions: 10 mM glutamate ref 46; cited from earlier work
[5] = molecular target: T5, SNAP-mGluR2(F756D)/mGluR7 heterodimer (Rattus norvegicus, UniProt P31421+P35400, F756D); test: Whole-cell patch clamp of GIRK1 current, trans-activation in SNAP-mGluR2(F756D)/mGluR7; format: cell-based; conditions: for glutamate GIRK concentration-response relation compared to mGluR2/2: patch clamp
T5 construct: HA (N); expressed in transfected cells; host or cells: HEK293 / HEK293T
Excerpt: We explored this further by examining trans-activation, whereby binding of ligand to one subunit activates G-protein interaction in the partner subunit[46],[47]. To specifically activate only the mGluR2 subunit of the mGluR2/7 heterodimer, we selectively attached a photoswitched tethered ligand to mGluR2. […] SNAP-mGluR2(F756D) was co-expressed with wild-type mGluR7 along with the GIRK1 channel.
as §2

mGluR5/mGluR5(YADA) = conditions: cited from earlier work
[6] = molecular target: T6, CLIP-mGluR2/SNAP-mGluR2(YADA) dimer (Rattus norvegicus, UniProt P31421, D295A/Y216A); test: smFRET on CLIP-mGluR2/SNAP-mGluR2(YADA) dimers; format: biochemical; conditions: for mGluR2/2(YADA) Histogram area: Figure 4c
T6 construct: Flag (N); HA (N); made in house; host or cells: HEK293T
Excerpt: To examine this, we tested the behavior of a heterodimer that co-assembles a wild-type mGluR2 with a binding site mutant version of mGluR2, mGluR2 (Y216A and D295A; known as the YADA mutant). […] We co-expressed CLIP-mGluR2 and SNAP-mGluR2(YADA) and labeled with the SNAP-selective acceptor dye BG-Alexa-647 and the CLIP-selective donor dye BC-DY-547. […] These findings indicate that closure of a single wild-type mGluR2 subunit is much more efficient in activating the receptor when partnered in the dimer with an mGluR7 than with another mGluR2.
as §1

T5 sequence (P31421 19-872 F756D): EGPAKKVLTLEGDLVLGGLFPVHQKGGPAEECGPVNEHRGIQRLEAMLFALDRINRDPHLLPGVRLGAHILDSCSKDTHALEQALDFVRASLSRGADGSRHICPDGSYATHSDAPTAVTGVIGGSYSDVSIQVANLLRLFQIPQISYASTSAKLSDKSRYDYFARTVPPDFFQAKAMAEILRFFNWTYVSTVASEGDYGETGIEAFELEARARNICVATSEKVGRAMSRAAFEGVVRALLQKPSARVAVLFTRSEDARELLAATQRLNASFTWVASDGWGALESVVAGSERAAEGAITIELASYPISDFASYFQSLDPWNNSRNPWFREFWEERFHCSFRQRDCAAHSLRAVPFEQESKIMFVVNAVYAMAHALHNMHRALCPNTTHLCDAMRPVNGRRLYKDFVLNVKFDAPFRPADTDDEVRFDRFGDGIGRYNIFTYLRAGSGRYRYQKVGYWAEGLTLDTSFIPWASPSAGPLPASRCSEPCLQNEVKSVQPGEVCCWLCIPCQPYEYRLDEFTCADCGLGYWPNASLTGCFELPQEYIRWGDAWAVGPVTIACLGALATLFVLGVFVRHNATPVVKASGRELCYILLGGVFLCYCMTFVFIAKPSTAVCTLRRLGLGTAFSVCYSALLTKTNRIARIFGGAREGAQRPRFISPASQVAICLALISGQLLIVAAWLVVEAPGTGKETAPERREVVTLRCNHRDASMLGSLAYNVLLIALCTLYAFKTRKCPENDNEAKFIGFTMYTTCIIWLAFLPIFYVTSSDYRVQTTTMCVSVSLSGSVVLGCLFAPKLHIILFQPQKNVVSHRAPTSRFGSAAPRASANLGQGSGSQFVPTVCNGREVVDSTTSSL
T5 sequence (P35400 35-915): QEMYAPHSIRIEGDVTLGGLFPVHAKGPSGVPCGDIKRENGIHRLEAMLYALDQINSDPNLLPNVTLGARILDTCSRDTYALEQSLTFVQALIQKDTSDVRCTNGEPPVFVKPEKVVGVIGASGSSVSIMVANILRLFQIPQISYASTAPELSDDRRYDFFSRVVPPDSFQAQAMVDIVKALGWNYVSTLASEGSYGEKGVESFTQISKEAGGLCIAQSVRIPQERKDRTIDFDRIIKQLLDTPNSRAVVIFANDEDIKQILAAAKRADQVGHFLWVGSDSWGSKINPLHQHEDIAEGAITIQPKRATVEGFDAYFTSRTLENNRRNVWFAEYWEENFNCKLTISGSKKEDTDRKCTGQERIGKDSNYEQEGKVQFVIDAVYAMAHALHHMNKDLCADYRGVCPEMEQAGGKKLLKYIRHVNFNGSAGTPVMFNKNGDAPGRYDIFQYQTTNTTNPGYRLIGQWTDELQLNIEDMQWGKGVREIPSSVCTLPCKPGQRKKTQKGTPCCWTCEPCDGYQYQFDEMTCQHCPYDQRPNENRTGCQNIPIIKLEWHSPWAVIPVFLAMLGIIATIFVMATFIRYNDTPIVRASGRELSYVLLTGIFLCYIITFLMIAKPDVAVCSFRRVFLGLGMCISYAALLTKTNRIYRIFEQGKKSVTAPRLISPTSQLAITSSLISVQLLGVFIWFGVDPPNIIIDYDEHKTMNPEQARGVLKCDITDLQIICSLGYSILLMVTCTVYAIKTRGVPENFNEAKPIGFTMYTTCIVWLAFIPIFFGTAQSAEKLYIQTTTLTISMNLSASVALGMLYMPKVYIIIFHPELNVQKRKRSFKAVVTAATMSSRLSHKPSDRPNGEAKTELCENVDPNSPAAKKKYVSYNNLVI
T4 sequence (P35400 35-915): as above
T6 sequence (P31421 19-872, stated change not applied): as the sequence (P31421 19-872 F756D) above, with D738F counted along it
T6 sequence (P31421 19-872 Y216A/D295A): as the sequence (P31421 19-872 F756D) above, with Y198A, D277A, D738F counted along it
SNAP-mGluR2/SNAP-mGluR2 (mGluR2/2), sequence (P31421 19-872): as the sequence (P31421 19-872 F756D) above, with D738F counted along it
T1 sequence (P35400 35-915 N74K): as the sequence (P35400 35-915) above, with N40K counted along it
T2 sequence (P31421 19-872 F756D): as the sequence (P31421 19-872 F756D) above
T3 sequence (P35400 35-915 K319C): as the sequence (P35400 35-915) above, with K285C counted along it

## N[C@@H](CCC(=O)O)C(=O)O [glutamate]
[1]
  occupancy of activated low FRET state vs wild-type mGluR7: greater occupancy of the activated low FRET (~0.2) state
SNAP-mGluR2(F756D)
  Current, 1 mM Glu: 0
mGluR7(K319C)
  effect of K319C mutation on apparent affinity for glutamate (GIRK current): did not alter the apparent affinity
[2]; 10 mM glutamate, live HEK293T cells
  FRET decrease: barely measurable FRET decrease
[2]; 10 mM glutamate, live cells
  fractional change in FRET (Figure 1c), Average: 0.002
[2]; live-cell ensemble FRET
  glutamate concentration required for a measurable response: 10 mM
[2]; up to 1 mM glutamate, live HEK293T cells
  FRET change: no detectable FRET change
[3]; Glu 1e-6, listed as Glu
  titration values, single replicates 1-3: 0.1214 and 0.05844 and 0.0437
[3]; Glu 1e-5
  titration values, AVG (normalized response): 0.4456
[3]; Glu 1e-5, listed as Glu
  titration values, single replicates 1-3: 0.4624 and 0.4291 and 0.4452
[3]; Glu 0.0001
  titration values, AVG (normalized response): 0.9358
[3]; Glu 0.0001, listed as Glu
  titration values, single replicates 1-3: 0.9459 and 0.9335 and 0.9281
[3]; Glu 0.001
  titration values, AVG (normalized response): 1.022
[3]; Glu 0.001, listed as Glu
  titration values, single replicates 1-3: 1.05 and 1.012 and 1.0027
[3]; Glu 0.01 (normalisation point)
  titration values, AVG (normalized response): 1
  titration values, single replicates 1-3: 1
[4]
  EC50: 38.3 mM and 38 mM
mGluR5(YADA) homodimer
  activation by glutamate: not be activated
[5]; 100 nM Glu normalised to 1 mM Glu, average of cells
  Norm. (100 nM Glu), average: 0.158
[5]; 1 uM Glu normalised to 1 mM Glu, average of cells
  Norm. (1 uM Glu), average: 0.4678
[5]; 1 uM Glu normalised to 1 mM Glu, single cells, listed as Glu
  Norm. (1 uM Glu): 0.3693 and 0.5844 and 0.4728 and 0.4449
[5]; 10 uM Glu normalised to 1 mM Glu, average of cells
  Norm. (10 uM), average: 0.7782
[5]; 10 uM Glu normalised to 1 mM Glu, single cells, listed as Glu
  Norm. (10 uM): 0.7837 and 0.9099 and 0.6409
[5]; 100 uM Glu normalised to 1 mM Glu, average of cells
  Norm. (100 uM), average: 0.9915
[5]; 100 uM Glu normalised to 1 mM Glu, single cells, listed as Glu
  Norm. (100 uM): 1.055 and 0.9085 and 1.011
[5]
  glutamate GIRK concentration-response relation compared to mGluR2/2: shifted to the left
[5]; listed as Glutamate
  glutamate GIRK concentration-response relation compared to mGluR2/2: left-shifted
mGluR5/mGluR5(YADA)
  first low glutamate concentration component, share of maximal activation: ~ 20%
[6]; Glu 1e-6
  mGluR2/2(YADA) Histogram area: 0.0005
[6]; Glu 3e-6
  mGluR2/2(YADA) Histogram area: 0.0013
[6]; Glu 1e-5
  mGluR2/2(YADA) Histogram area: 0.00167
[6]; Glu 3e-5
  mGluR2/2(YADA) Histogram area: 0.00171
[6]; Glu 0.0001
  mGluR2/2(YADA) Histogram area: 0.00339
[6]; Glu 0.0003
  mGluR2/2(YADA) Histogram area: 0.00443
[6]; Glu 0.001
  mGluR2/2(YADA) Histogram area: 0.00578
[6]; Glu 0.01
  mGluR2/2(YADA) Histogram area: 0.00605
[6]; Glu 0.1
  mGluR2/2(YADA) Histogram area: 0.00616
[6]; high glutamate
  maximal occupancy of the low FRET activated conformation: ~ 30%
